Assay results reported in patent US20210346342A1, “COMBINATION OF AN UROLITHIN WITH AN IMMUNOTHERAPY TREATMENT” (Amazentis SA, priority 2019, published 2021).

Columns and labels:
[1] = tested on: AOM model of colorectal cancer; experiment: AOM model of colorectal cancer: lesion count/size (H&E) and anti-CD3 immunostaining of colonic mucosa; format: in vivo, mouse
Description: • A model of sporadic tumourigenesis can be obtained applying repetitively azoxymethane (AOM), without dextran sodium sulphate, to female wild-type FVB mice. In particular, tumours are induced by six weekly intraperitoneal injections of AOM (10 mg/kg) in wild type animals. Mice are analysed 18-24 weeks later. Urolithin A is applied in the diet at a dose of 50 or 200 mg/kg mouse a day (mpk), or control lab diet one week before starting the 6 injections of AOM, during the 6 weeks of injections with AOM, and for approximately 20 weeks following these injections, for a total of ca. 27-30 weeks. At the end of the treatment period, mice are euthanized by cervical dislocation for the collection of intestinal tissues.

[2] = tested on: APTK organoid xenograft tumours; experiment: APTK organoid subcutaneous xenograft tumour model: tumour volume, CD3 and cleaved caspase 3 staining; format: in vivo, mouse
Excerpt: • Colorectal cancer organoids (from here on also referred to as APTK organoids) are generated by the selective introduction of tumourigenic mutation in the gene APC (A), p53 (P), Tgf-beta1 (T) and K-ras (K). Since APTK organoids have been developed on a C57/BL6 genetic background, they can be transplanted to generate tumours in wild type BL6 mice with an intact immune system that allows to study the immune response towards the developing tumour. One week prior to subcutaneous transplantation, the mice are fed either a Urolithin A-containing or control diet. Tumour growth is assessed by calliper measurements. The resulting tumours are analysed histologically.

[3] = Pharmacokinetic profile of orally administered urolithin A; format: in vivo; conditions: 250 mg to 1000 mg urolithin A compared with 2000 mg
[4] = tested on: APTK organoid xenograft tumours; experiment: APTK organoid model combined with anti-PD1 injections; format: in vivo, mouse; conditions: Urolithin A 200 mpk with isotype control antibody vs anti-PD1 200 μg i.p. every third day, FIG. 8
Description: • C57BL/6 mice are transplanted subcutaneously with APTK organoids as described in Example 2 and either, fed with a Urolithin A 200 mpk or control diet (initiated one week prior to subcutaneous injection) and receive 4 intraperitoneal injections (200 μg every third day, starting day 5) of a blocking anti-PD1 or isotype control antibody (BioXCell).

[5] = tested on: APTK organoid xenograft tumours; experiment: APTK organoid model with depletion of CD8+ cytotoxic T cells by anti-CD8; format: in vivo, mouse; conditions: UA 200 mpk diet plus anti-CD8 150 μg i.p. every second day, FIG. 7
Description: For this model, C57/BL6 were maintained on a Urolithin A 200 mpk or control diet. One week after starting the dietary intervention, mice were transplanted subcutaneously with APTK organoids as described above. Starting at day 3, these mice received 5 intraperitoneal injections (150 μg every second day) of an anti-CD8 or isotype control antibody (BioXCell) to deplete CD8+ cytotoxic T cells. As in the previous experiments, tumour growth is measured by calliper measurements.

[6] = tested on: previously treated, unresectable melanoma; conditions: patients with previously treated; cited from earlier work
[7] = tested on: advanced, previously untreated non-small cell lung cancer; conditions: patients with advanced; cited from earlier work

Molecule | number of lesions ([1]; UA 200 mpk in diet vs control diet, H&E of colonic tissue, FIG. 2) | CD3 positive cells in colonic mucosa ([1]; UA 200 mpk vs control, anti-CD3 immunostaining, FIG. 3) | size of lesions ([1]; UA treated animals vs control diet, FIG. 2) | tumour volume ([2]; UA 200 mpk diet vs control diet, calliper, FIG. 4) | CD3 positive cells at the invasive margin ([2]; UA 200 mpk vs control, FIG. 5) | CD3 positive cells inside the core of the tumours ([2]; UA 200 mpk vs control, FIG. 5) | cleaved Casp3 staining (marker of apoptosis) ([2]; UA 200 mpk vs control, FIG. 6) | pharmacokinetic profile [3] | tumour growth, Urolithin A alone versus anti-PD1 antibody treatment [4] | anti-tumoural effect (tumour volume) when CD8+ cytotoxic T cells are abrogated [5] | progression free survival [6] | response rate [6] | response rate [7]
O=c1oc2cc(O)ccc2c2ccc(O)cc12 [Urolithin A] | significantly decreases the number of lesions | tend to have more CD3 positive cells | appear to be of smaller size | significant lower tumour volume | less CD3 positive cells at the invasive margin | more CD3 positive cells inside the core of the tumours | significant increase of cleaved Casp3 staining | surprisingly good pharmacokinetic profile | no difference was observed | anti-tumoural effect of UA is lost |  |  | 
nivolumab |  |  |  |  |  |  |  |  |  |  | 9.7 months | 31% | 30%
pembrolizumab: humanized monoclonal IgG4 antibody directed against human cell surface receptor PD-1 |  |  |  |  |  |  |  |  |  |  | 50 weeks | 34% | 26%
